Consider 2 compounds from ChEMBL document CHEMBL4725252, “Development of an efficient semisynthetic modification of FR901459 via a novel regioselective N, O-acyl migration” (Bioorg Med Chem Lett, 2020).

Converted amounts (≈) assume the structure as drawn. Square brackets hold non-standard residues; d marks the D form. Peptide text beside a SMILES is read from it. MeBmt = C/C=C/C[C@@H](C)[C@@H](O)[C@H](NC)C(=O)O; NMeL = CN[C@@H](CC(C)C)C(=O)O; NMeV = CN[C@H](C(=O)O)C(C)C; Sar = CNCC(=O)O

In assay [1] the test system is Hepatitis C virus. Put plainly: Ratio of EC50 for FR901459 to EC50 for test compound for antiviral activity against HCV subgenomic replicon assessed as inhibition of replication by qRT-PCR analysis. The assay is classed as functional, Hepacivirus hominis.
Assay [2] has as its system Hepatitis C virus. Put plainly: Antiviral activity against HCV subgenomic replicon assessed as inhibition of replication by qRT-PCR analysis. The assay is classed as functional, organism-based, Hepacivirus hominis.

Turning to `C/C=C/C[C@@H](C)[C@@H](O)[C@H]1C(=O)N[C@@H]([C@@H](C)O)C(=O)N(C)[C@H](C)C(=O)N(C)[C@@H](CC(C)C)C(=O)N[C@@H](CC(C)C)C(=O)N(C)[C@@H](CC(C)C)C(=O)N[C@@H](C)C(=O)N[C@H](C)C(=O)N(C)[C@@H](CC(C)C)C(=O)N[C@@H](CC(C)C)C(=O)N(C)[C@@H](C(C)C)C(=O)N1C`, the “Ratio EC50” value in assay [1] amounted to 2.5. Besides, the EC50 in assay [2] is 0.038 µg/mL (≈ 0.0308 µM).

In the case of `C/C=C/C[C@@H](C)[C@@H](O)[C@H]1C(=O)N[C@@H]([C@@H](C)O)C(=O)N(C)CC(=O)N(C)[C@@H](CC(C)C)C(=O)N[C@@H](CC(C)C)C(=O)N(C)[C@@H](CC(C)C)C(=O)N[C@@H](C)C(=O)N[C@H](C)C(=O)N(C)[C@@H](CC(C)C)C(=O)N[C@@H](CC(C)C)C(=O)N(C)[C@@H](C(C)C)C(=O)N1C` (cyclo(A[dA][NMeL]L[NMeV][MeBmt]T[Sar][NMeL]L[NMeL])), the EC50 in assay [2] is 0.096 µg/mL (≈ 0.0788 µM).
